Two compounds from patent US20060272107A1, “Hair relaxing composition comprising at least one non-hydroxide polyguanidine” (priority 2005, published 2006) can be followed below.

This experiment is described as follows: Hair relaxing test: simplified aqueous composition applied to hair. How it is done:
A simplified hair relaxing composition was prepared, containing N″,N″-1,3-propanediylbis[N,N,N′,N′-tetramethylguanidine] (RN: 289474-28-8) at a concentration of 0.5M in water, as active relaxing agent. This composition was applied to naturally frizzy African hair for 20 minutes at a temperature of 30° C.
A simplified hair relaxing composition was prepared, containing N″,N″,N″″-(nitrilotri-2,1-ethanediyl)tris[N,N,N′,N′-tetramethylguanidine] (RN: 368866-05-1) at a concentration of 0.25M in water, as active relaxing agent. This composition was applied to naturally frizzy African hair for 25 minutes at a temperature of 30° C.

As to `CN(C)C(=NCCCN=C(N(C)C)N(C)C)N(C)C` [N″,N″-1,3-propanediylbis[N,N,N′,N′-tetramethylguanidine]], where the note is “0.5M in water, applied for 20 minutes at 30° C”, the hair relaxing result is given as “effectively relaxed”.
Regarding `CN(C)C(=NCCN(CCN=C(N(C)C)N(C)C)CCN=C(N(C)C)N(C)C)N(C)C` [N″,N″,N″″-(nitrilotri-2,1-ethanediyl)tris[N,N,N′,N′-tetramethylguanidine]], the hair relaxing entry (0.25M in water, applied for 25 minutes at 30° C) is “effectively relaxed”.
